What was measured:
Assay in all cases: Competitive radioligand binding, 125I-Tyr-SRIF 14, membrane preparations
[1] = target: human somatostatin receptor SSTR1 (Homo sapiens (Human), UniProt P30872); details: competitive binding vs 125I-Tyr-SRIF 14, human SSTR1 membranes; read-out: SST1
Description: (§1) Respective membrane receptor preparations were prepared in assay buffer (25 mM HEPES, 10 mM MgCl2, 1 mM CaCl2, 0.5% BSA, pH=7.4) at a 1:150 dilution. […] Binding assays were performed in triplicate for each concentration of ligand in a total volume of 200 μL radioligand (25 μL ligand, 25 μL radioligand, 150 μL receptors) and incubated at room temperature for 90 minutes using a shaking table. Binding was terminated by filtration through GF/B glass fiber filters that were presoaked in 0.5% polyethyleneimine for a minimum of 4 hours. Filters were washed 9× with 1000 μL ice cold wash buffer (50 mM Tris-HCl, pH=7.4, 0.2% BSA). Filters were scored, transferred into plastic test tubes and counted in a gamma counter (Wizard2, Perkin-Elmer). Determination of the Ki for each compound was performed using non-linear regression with GraphPad PRISM-5 software (GraphPad Software, Inc., La Jolla, Calif.).

[2] = target: human somatostatin receptor SSTR2A (Homo sapiens (Human), UniProt P30874); details: competitive binding vs 125I-Tyr-SRIF 14, human SSTR2A membranes; read-out: SST2
Description: as §1

[3] = target: human somatostatin receptor SSTR5 (Homo sapiens (Human), UniProt P35346); details: competitive binding vs 125I-Tyr-SRIF 14, human SSTR5 membranes; read-out: SST5
Description: as §1

[4] = target: human somatostatin receptor SSTR3 (Homo sapiens (Human), UniProt P32745); details: competitive binding vs 125I-Tyr-SRIF 14, human SSTR3 membranes; read-out: SST3
Description: Competitive radioligand binding experiments were performed using MEMBRANE TARGET Systems (Perkin-Elmer, Boston, Mass.) for human somatostatin receptors: SSTR1 (ES-520-M400UA), SSTR2A (ES-521-M400UA), SSTR3 (ES523-M400UA), SSTR4 (ES-524-M400UA) and SSTR5 (ES-522-M400UA) receptors. (See Table 1). Respective membrane receptor preparations were prepared in assay buffer (25 mM HEPES, 10 mM MgCl2, 1 mM CaCl2, 0.5% BSA, pH=7.4) at a 1:150 dilution. Binding assays were performed using 1251-Tyr-SRIF 14 (Perkin-Elmer, NEX 3890) dissolved in 1 mM HCl. Binding assays were performed in triplicate for each concentration of ligand in a total volume of 200 μL radioligand (25 μL ligand, 25 μL radioligand, 150 μL receptors) and incubated at room temperature for 90 minutes using a shaking table. Binding was terminated by filtration through GF/B glass fiber filters that were presoaked in 0.5% polyethyleneimine for a minimum of 4 hours. Filters were washed 9× with 1000 μL ice cold wash buffer (50 mM Tris-HCl, pH=7.4, 0.2% BSA). Filters were scored, transferred into plastic test tubes and counted in a gamma counter (Wizard2, Perkin-Elmer). Determination of the Ki for each compound was performed using non-linear regression with GraphPad PRISM-5 software (GraphPad Software, Inc., La Jolla, Calif.).

Chain of human somatostatin receptor SSTR2A (P30874 whole entry): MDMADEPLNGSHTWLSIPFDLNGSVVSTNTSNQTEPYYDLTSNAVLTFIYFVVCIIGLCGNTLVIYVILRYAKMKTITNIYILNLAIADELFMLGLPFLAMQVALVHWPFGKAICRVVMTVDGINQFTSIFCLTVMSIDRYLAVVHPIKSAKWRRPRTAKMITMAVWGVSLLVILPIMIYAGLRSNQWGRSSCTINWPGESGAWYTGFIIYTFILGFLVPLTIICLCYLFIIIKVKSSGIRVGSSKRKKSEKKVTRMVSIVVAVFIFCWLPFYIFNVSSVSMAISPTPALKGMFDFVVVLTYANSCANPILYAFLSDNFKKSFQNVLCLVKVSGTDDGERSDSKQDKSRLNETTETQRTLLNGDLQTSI

SMILES | Ki [1] [µM] | Ki [2] [µM] | Ki [3] [µM] | Ki [4] [µM]
Clc1ccccc1Cc1nnc(CCc2c[nH]c3ccccc23)n1CCCc1c[nH]cn1 [MM-I-17, 3-(2-(4-(3-(1H-Imidazol-4-yl)propyl)-5-(2-chlorobenzyl)-4H-1,2,4-triazol-3-yl)ethyl)-1H-indole] | > 10 | > 10 | > 10 | > 10
Fc1cccc(Cc2nnc(CCc3c[nH]c4ccccc34)n2CCCc2c[nH]cn2)c1 [SM-I-38, 3-(2-(4-(3-(1H-Imidazol-4-yl)propyl)-5-(3-fluorobenzyl)-4H-1,2,4-triazol-3-yl)ethyl)-1H-indole] | > 10 | > 10 | > 10 | > 10
COc1ccccc1Cc1nnc(CCc2c[nH]c3ccccc23)n1CCCc1c[nH]cn1 [MM-I-21, 3-(2-(4-(3-(1H-Imidazol-4-yl)propyl)-5-(2-methoxybenzyl)-4H-1,2,4-triazol-3-yl)ethyl)-1H-indole] | > 10 | > 10 | > 10 | > 10
COc1ccc2[nH]cc(Cc3nnc(Cc4ccc(F)cc4)n3CCCc3c[nH]cn3)c2c1 [SK-I-55, 3-((4-(3-(1H-imidazol-4-yl)propyl)-5-(4-fluorobenzyl)-4H-1,2,4-triazol-3-yl)methyl)-5-methoxy-1H-indole] | 1.03 | 5.43 | > 10 | > 10
COc1cccc(Cc2nnc(CCc3c[nH]c4ccccc34)n2CCCc2c[nH]cn2)c1 [BN-VI-61, 3-(2-(4-(3-(1H-Imidazol-4-yl)propyl)-5-(3-methoxybenzyl)-4H-1,2,4-triazol-3-yl)ethyl)-1H-indole] | > 10 | > 10 | > 10 | > 10
FC(F)(F)c1cccc(Cc2nnc(CCc3c[nH]c4ccccc34)n2CCCc2c[nH]cn2)c1 [BN-VI-97, 3-(2-(4-(3-(1H-Imidazol-4-yl)propyl)-5-(3-(trifluoromethyl)benzyl)-4H-1,2,4-triazol-3-yl)ethyl)-1H-indole] | 5.31 | > 10 | > 10 | > 10
c1ccc(Cc2nnc(CCc3c[nH]c4ccccc34)n2CCCc2c[nH]cn2)cc1 [SM-I-26, 3-(2-(4-(3-(1H-Imidazol-4-yl)propyl)-5-benzyl-4H-1,2,4-triazol-3-yl)ethyl)-1H-indole] | > 10 | > 10 | > 10 | > 10
FC(F)(F)c1cccc(Cc2nnc(Cc3c[nH]c4ccccc34)n2CCCc2c[nH]cn2)c1 [MM-I-66, 3-((4-(3-(1H-imidazol-4-yl)propyl)-5-(3-(trifluoromethyl)benzyl)-4H-1,2,4-triazol-3-yl)methyl)-1H-indole] | 0.588 | 2.33 | > 10 | > 10
CC(C)(C)Cc1nnc(Cc2c[nH]c3cc(F)ccc23)n1CCCc1c[nH]cn1 [SK-I-119, 3-((4-(3-(1H-imidazol-4-yl)propyl)-5-neopentyl-4H-1,2,4-triazol-3-yl)methyl)-6-fluoro-1H-indole] | 4.34 | > 10 | > 10 | > 10
COc1ccc2[nH]cc(Cc3nnc(Cc4cccc(C(F)(F)F)c4)n3CCCc3c[nH]cn3)c2c1 [SK-I-57, 3-((4-(3-(1H-imidazol-4-yl)propyl)-5-(3-(trifluoromethyl)benzyl)-4H-1,2,4-triazol-3-yl)methyl)-5-methoxy-1H-indole] | 0.365 | 1.69 | > 10 | 1.13
Clc1cccc(Cc2nnc(CCc3c[nH]c4ccccc34)n2CCCc2c[nH]cn2)c1 [BN-VI-56, 3-(2-(4-(3-(1H-Imidazol-4-yl)propyl)-5-(3-chlorobenzyl)-4H-1,2,4-triazol-3-yl)ethyl)-1H-indole] | 6.93 | > 10 | > 10 | > 10

From patent US11136312B2, “3,4,5-trisubstituted-1,2,4-triazoles and 3,4,5-trisubstituted-3-thio-1,2,4-triazoles and uses thereof” (Board of Trustees of Southern Illinois University, priority 2017, dated 2021)
